Source: patent US10745414B2, “Crystal salt form of 2,2-dimethyl-6-((4-((3,4,5-trimethoxyphenyl)amino)-1,3,5-triazine-2-yl)amino)-2H-pyrido[3,2-b][1,4]oxazine-3(4H)-one for human use” (LIMITED “MOLECULAR TECHNOLOGIES”, priority 2016, dated 2020)

Legend:
[1] = pharmacokinetics in blood plasma after oral administration in Wistar rats; settings: rat, in vivo
Description: At the first stage, pharmacokinetics of the Compound 1 free base was studied after oral administration in Wistar rats at dosage of 30 mg/kg.
Pharmacokinetics of several Compound 1 salt forms was studied after oral administration in Wistar rats at a dose of 37 mg/kg (30 mg/kg equivalent to a free base).

[2] = distribution across organs and tissues in rats; type: in vivo
Description: When the 4-methylbenzenesulfonic acid and Compound 1 salt hydrate is administered intragastrically at dosages 30 to 200 mg/kg, the Compound 1 concentration in rat blood plasma increases in proportion to the dose. High concentrations of the Compound 1 was found almost in all the tissues studied and reached maximum at 2 to 4 hours after 4-methylbenzenesulfonic acid and Compound 1 salt hydrate administration.

[3] = pharmacokinetics in rabbits at single administration; type: in vivo; settings: 50 mg/kg
mature human osteoclasts = test: osteoclast-mediated resorption of mineralized matrix; type: cell-based; settings: 1.1 μM and 10 μM, 48 hours
Description: The study was carried out following the method below: CD15+ monocytes (osteoclast precursor cells) were cultivated for 3 days in a proliferation medium (Igla α-modified minimum essential medium/fetal calf serum (aMEM/FCS), 10% with 25 ng/ml of macrophage colony-stimulating factor (M-CSF)). During this stage M-CSF promoted proliferation and expression of a receptor activator of nuclear factor KB (RANK, cappa-B, type I membrane protein). The proliferation medium was removed and cells were differentiated in a differentiation medium (aMEM/FCS-10% with 100 ng/ml of RANKL and 25 ng/ml of M-CSF). When mature osteoclasts were detected in the culture (day 4 of the study), the cells were collected and re-inoculated into a 96-well plate coated with a synthetic mineralized matrix. Cultivation continued for 48 hours (at presence of the studied compounds) to evaluate osteoclast resorption. Then number of mature osteoclasts and the resorption degree were evaluated. An effect of 4-methylbenzenesulfonic acid and Compound 1 salt concentration on concentration and resorption degree of mature osteoclasts was evaluated in comparison with control samples ([…] control, 0.3% DMSO solvent) and reference inhibitors, i.e., saracatinib and bosutinib (see FIG. 18).

[4] = system: Sprague-Dawley rat models of osteoarthritis induced by intra-articular introduction of sodium iodoacetate; test: mechanical allodynia test with von Frey filaments in osteoarthritis induced by sodium iodoacetate; type: in vivo
Description: The intra-articular introduction of aerobic glycolysis inhibitor (sodium iodoacetate) results in death of chondrocytes and acute inflammatory reaction in a synovial cavity. In absence of treatment, at day 10 from the pathology induction an onset of chronic pain is observed due to cartilage destruction and development of chronic inflammation in particular cases [J Musculoskel Neuron Interact 2001; 1(4):363-376]. Extent of osteoarthritis development in rats was evaluated by comparison of extremity pain sensitivity threshold after the introduction of sodium iodoacetate versus background measurements taken before the pathology induction. The threshold of the pain sensitivity was evaluated by mechanical allodynia test using von Frey filaments (see Table 8).
For the purposes of the study, rat males weighing 150 to 200 g were selected. All the animals underwent acclimatization for 14 days. The animals were housed in a polycarbonate cages of 3H type manufactured by Charles River laboratories Inc according to COST R 53434-2009. 12-hours lighting regimen was maintained. The animals had access to food and water ad libitum. The pathology was induced by introduction of 50 μl solution containing 2 mg of sodium iodoacetate into a synovial cavity of the animal knee joints. Tactile allodynia induced by a mechanical irritation was evaluated using von Frey filaments weighing 0.06 to 23.96 g. The test was repeated five times for each filament at intervals of 1 to 2 s. The sensitivity threshold was considered as a minimum reaction threshold provoking paw withdrawal in one of five repeats.

[5] = pharmacokinetics in blood plasma after oral administration in Wistar rats; settings: rat, in vivo, 21 mg/kg

## COc1cc(Nc2ncnc(Nc3ccc4c(n3)NC(=O)C(C)(C)O4)n2)cc(OC)c1OC.Cc1ccc(S(=O)(=O)O)cc1.O [monohydrate of 4-methylbenzenesulfonic acid and 2,2-dimethyl-6-((4-((3,4,5-trimethoxyphenyl)amino)-1,3,5-triazine-2-yl)amino)-2H-pyrido[3,2-b][1,4]oxazine-3(4H)-one base]
[1]
  time of reaching maximum concentration in blood: 1.1 to 1.3 h
[2]
  tissue with lowest concentration: lowest concentration of the Compound 1 was registered in muscles
[2]; intragastric
  daily average concentration in bone and cartilage tissues versus daily average concentration in blood plasma: more than three times
[3]
  elimination half-time: more than 7 hours
Mature human osteoclasts
  effect on osteoclast-mediated resorption of the mineralized matrix: profound statistically significant inhibitory effect
[4]; 100 mg/kg intragastric, days 0-28 (daily), day 14 from pathology induction
  Reaction threshold value, % of control: 106 % of control
[4]; 100 mg/kg intragastric, days 0-28 (daily), day 21
  Reaction threshold value, % of control: 80 % of control
[4]; 100 mg/kg intragastric, days 0-28 (daily), day 28
  Reaction threshold value, % of control: 106 % of control
[4]; 100 mg/kg intragastric, days 7-28 (daily), day 14
  Reaction threshold value, % of control: 70 % of control
[4]; 100 mg/kg intragastric, days 7-28 (daily), day 21
  Reaction threshold value, % of control: 75 % of control
[4]; 100 mg/kg intragastric, days 7-28 (daily), day 28
  Reaction threshold value, % of control: 73 % of control
[4]; 500 mg/kg intragastric, days 0-28 (daily), day 14
  Reaction threshold value, % of control: 114 % of control
[4]; 500 mg/kg intragastric, days 0-28 (daily), day 21
  Reaction threshold value, % of control: 106 % of control
[4]; 500 mg/kg intragastric, days 0-28 (daily), day 28
  Reaction threshold value, % of control: 107 % of control
[4]; 500 mg/kg intragastric, days 7-28 (daily), day 14
  Reaction threshold value, % of control: 76 % of control
[4]; 500 mg/kg intragastric, days 7-28 (daily), day 21
  Reaction threshold value, % of control: 91 % of control
[4]; 500 mg/kg intragastric, days 7-28 (daily), day 28
  Reaction threshold value, % of control: 118 % of control
[4]; 100 and 500 mg/kg from day of pathology induction, 500 mg/kg from the seventh day
  mechanical allodynia onset: Total arrest of mechanical allodynia onset
[5]
  Cmax: 416 ng/mL
